Measurements: patent US20240352418A1, “METHOD FOR PRODUCING MULTINUCLEATED MEGAKARYOCYTE WITH ENHANCED PLATELET PRODUCTION CAPABILITY, METHOD FOR PRODUCING PLATELETS, METHOD FOR PRODUCING PLATELET PREPARATION, AND METHOD FOR PRODUCING BLOOD PREPARATION” (Megakaryon Corporation, priority 2021, published 2024)

Legend:
[1] = system: multinucleated megakaryocytes induced from immortalized megakaryocyte cell line (MKCL); experiment: Size and expansion of multinucleated megakaryocytes after BSA fractionation (FSC, phase-contrast microscope); format: cell-based, human; conditions: F1 fraction, phase-contrast images, FIG. 4; AZ191 1 μmol/L and blebbistatin 10 μmol/L added together to GNF351 + Y-39983 (1B vs 1A); harmine 5 μmol/L added on top (Example 1 vs 1B)
Text: Multinucleation was induced by culturing the immortalized megakaryocyte cell line obtained in Example 1(1) in the same manner as in Example 1(2). The obtained multinucleated megakaryocytes were fractionated according to the size of multinucleated megakaryocytes using bovine serum albumin. Specifically, a three-way stopcock was attached to a 50-ml injection syringe with a plunger removed, and the syringe was fixed with a clamp with a leading end of the tube facing downward. A 30% (w/v) albumin solution (derived from bovine serum, fatty acid free, Fujifilm Wako Pure Chemical Corporation #017-22231) was diluted with 1×HBSS (ThermoFisher #14175095) to prepare 2%, 4%, and 16% BSA solutions, and 16% (10 ml), 4% (4 ml), 2% (4 ml), and 0% (2 ml) solutions were layered in the above syringe in the stated order. A cell suspension containing 75×10^5 multinucleated megakaryocyte cells prepared using 2 ml of HBSS was then applied and allowed to stand for 50 minutes, so that the cells were settled under natural gravity. Then, the three-way stopcock was loosened, and the cells were collected by dropping droplets thereof. As a result, the cell population containing the multinucleated megakaryocytes was fractionated into fractions 1 to 4 (F1 to F4). Regarding the multinucleated megakaryocytes of each fraction, the number of sets of chromosomes (N) was analyzed in the same manner as in Example 1(3) above (Example 1). […]
After the fractionation, platelets were produced from multinucleated megakaryocytes by culturing the multinucleated megakaryocytes in the production culture medium excluding DOX. […] After the culturing, regarding the cell suspension containing platelets, the amount of platelets produced per megakaryocyte was calculated in the same manner as in Example 1(4).

[2] = system: immortalized megakaryocyte cell line (MKCL); experiment: Degree of multinucleation (number of sets of chromosomes, PI staining, flow cytometer); format: cell-based, human; conditions: cultured 3 days with DOX; FIG. 1; harmine alone 10 μmol/L in growth medium (control 2); Example 1 = multinucleation culture medium; vs control 1 (growth medium)
Description: Next, multinucleation of immortalized megakaryocytes was induced by culturing, in a culture medium to which an AhR inhibitor, a ROCK inhibitor, a DYRK inhibitor, a myosin 2 inhibitor, and harmine were added in addition to DOX. Specifically, the immortalized megakaryocyte cell line obtained in Example 1(1) was suspended in a multinucleation culture medium below, to 3.0×10^5 cells/ml. Then, the cells were seeded on a 6-well dish at 2 mL/well, or on a 125-mL Erlenmeyer Flask at 25 mL/flask, and cultured while being shaken at 100 rpm for 3 days. The culture conditions were set to 37° C. and 5% CO2. […]
The cell suspension obtained after the culturing was collected, and the number of sets of chromosomes in the cell suspension and the size of the cells were measured using a flow cytometer. […] As for the obtained results, the number of sets of chromosomes (N) contained in megakaryocytes and the size of the cells was analyzed based on FSC and PI staining intensity (Example 1). […]
The nuclear phases of the multinucleated megakaryocytes obtained using the method for producing multinucleated megakaryocytes according to the present invention were examined. […] As for the obtained results, the number of sets of chromosomes (N) contained in megakaryocytes and the size of the cells was analyzed based on FSC and PI staining intensity. […]

Structure (SMILES) | expansion of multinucleated megakaryocytes [1] | degree of multinucleation (nuclear phases detected) [2]
COc1cc(N2CCN(C)CC2)ccc1Nc1nccc(-c2cn(C)c3cnccc23)n1 [AZ191, N-[2-methoxy-4-(4-methyl-1-piperazinyl)phenyl]-4-(1-methyl-1H-pyrrolo [2,3-c]pyridin-3-yl)-2-pyrimidinamine] | facilitated expansion of multinucleated megakaryocytes | 
Cc1ccc2c(c1)C(=O)C1(O)CCN(c3ccccc3)C1=N2 (stereo not shown) [blebbistatin, 3a-hydroxy-6-methyl-1-phenyl-2,3-dihydropyrrolo[2,3-b]quinolin-4-one] | facilitated expansion of multinucleated megakaryocytes | 
COc1ccc2c(c1)[nH]c1c(C)nccc12 [harmine, 7-methoxy-1-methyl-9H-pyrido[3,4-b]indole] | no effect | 32N multinucleated megakaryocytes were slightly detected
